In patent US20250100998A1, “PARP7 INHIBITORS” (Gilead Sciences, Inc., priority 2023, published 2025) one finds EC50 data, which are given here for 21 molecules.

The EC50 is the concentration at which the effect is half-maximal.

The experiment relates to STAT1 (phosphorylated at Tyr701) in NCI-H1373 cells. Briefly: Phospho-STAT1 (Tyr701) LANCE Ultra TR-FRET detection assay. In kind it is cell-based. As to conditions: Homo sapiens, NCI-H1373, 48 h, induction of pSTAT1 in NCI-H1373 cells, 48 hours incubation; normalized to 10 uM positive control and DMSO; 4-parameter fit; read-out: NH1373 pSTAT1 EC50. As for the experimental part: Phospho-STAT1 (Tyr701 LANCE Ultra TR-FRET Detection Assay
LANCE Ultra phospho-STAT1 (Tyr701) kits are designed for the detection of phosphorylated STAT1 in cell lysates using a simple, homogeneous LANCE Ultra sandwich assay (Cat. #TRF4028M). This assay is intended for assessing compound induction of endogenous levels of cellular STAT1 (phosphorylated at Tyr701) in NCI-H1373 cells. The NCI-H1373 cells are cultured in RPMI 1640 media containing 10% heat inactivated FBS, GlutaMAX, 1% Penicillin-Streptomycin. An Echo acoustic liquid handler is used to transfer 60 nanoliters of compound dilutions using the Echo Qualified, 384-well polypropylene microplate clear flat bottom source plates into a Greiner (#781080) cell culture microplate. NCI-H1373 cells are seeded into these compound-spotted culture plates at 30,000 cells/well in a 60 uL volume in growth media. The plates are incubated in a 5% CO2 humidified incubator at 37° C. for 48 hours. […] Briefly, […] of supplemented lysis buffer is added to each well and allowed to shake for 1 hour at 400 rpm. Next, 5 ul of remixed antibody solutions (vol/vol) prepared in detection buffer are added to each well and allowed to incubate at room temperature overnight. After spinning the plate down at 300 rpm for 1 min, the plate is read on an EnVision plate reader set up for Eu3+ Cryptate and fluorescence emission is measured at two different wavelengths (665 nm and 620 nm). The HTRF ratio is then calculated ([…]) for each well to determine the amount of pSTAT1 in the cell lysate, and the data is then normalized to 10 uM (S)-5-((1-(3-oxo-3-(4-(5-(trifluoromethyl)pyrimidin-2-yl)piperazin-1-yl)propoxy)propan-2-yl)amino)-4-(trifluoromethyl)pyridazin-3(2H)-one positive and DMSO negative controls. The values were then plotted as a function of compound concentration and a 4-parameter fit was applied to derive the EC50 values.
For orientation: In TR-FRET formats the signal depends on donor and acceptor labels being close together.
Consider `O=c1[nH]ncc(N[C@H]2CCC[C@@H](Cn3ccc4cc(-c5nc6ccc(F)cn6n5)c(F)c(F)c4c3=O)C2)c1C(F)(F)F` [Example 17, 7,8-difluoro-6-(6-fluoro-[1,2,4]triazolo[1,5-a]pyridin-2-yl)-2-(((1R,3S)-3-((6-oxo-5-(trifluoromethyl)-1,6-dihydropyridazin-4-yl)amino)cyclohexyl)methyl)isoquinolin-1(2H)-one], for which the EC50 worked out at 1.16 nM.

For the molecule `O=c1[nH]ncc(N[C@H]2CCC[C@@H](Cn3cc(F)c4cc(-c5ncc(OC(F)(F)F)cn5)c(F)c(F)c4c3=O)C2)c1C(F)(F)F` [Example 44, 4,7,8-trifluoro-2-[[(1R,3S)-3-[[6-oxo-5-(trifluoromethyl)-1H-pyridazin-4-yl]amino]cyclohexyl]methyl]-6-[5-(trifluoromethoxy)pyrimidin-2-yl]isoquinolin-1-one], the EC50 was 4.17 nM.

In the case of `COc1cnc(-c2cc3c(F)cn(C[C@@H]4CCC[C@H](Nc5cn[nH]c(=O)c5C(F)(F)F)C4)c(=O)c3c(F)c2F)nc1` [Example 35, 4,7,8-trifluoro-6-(5-methoxypyrimidin-2-yl)-2-(((1R,3S)-3-((6-oxo-5-(trifluoromethyl)-1,6-dihydropyridazin-4-yl)amino)cyclohexyl)methyl)isoquinolin-1(2H)-one], the EC50 was found to be 1.45 nM.

`O=c1[nH]ncc(O[C@H]2CCC[C@@H](Cn3cc(F)c4cc(-c5ncc(OC(F)F)cn5)c(F)c(F)c4c3=O)C2)c1C(F)(F)F` [Example 50, 6-(5-(difluoromethoxy)pyrimidin-2-yl)-4,7,8-trifluoro-2-(((1R,3S)-3-((6-oxo-5-(trifluoromethyl)-1,6-dihydropyridazin-4-yl)oxy)cyclohexyl)methyl)isoquinolin-1(2H)-one]: the EC50 was 1.29 nM.

As for `O=C1c2cc(F)c(-c3ncc(C(F)(F)F)cn3)cc2CCN1C[C@@H]1CCC[C@H](Nc2cn[nH]c(=O)c2C(F)(F)F)C1` [Example 69, 7-fluoro-2-[[(1R,3S)-3-[[6-oxo-5-(trifluoromethyl)-1H-pyridazin-4-yl]amino]cyclohexyl]methyl]-6-[5-(trifluoromethyl)pyrimidin-2-yl]-3,4-dihydroisoquinolin-1-one], the EC50 is 4.56 nM.

Consider `[2H]C([2H])([2H])Oc1cnc(-c2cc3ncn(C[C@@H]4CCC[C@H](Nc5cn[nH]c(=O)c5C(F)(F)F)C4)c(=O)c3cc2F)nc1` [Example 26, 6-fluoro-7-(5-(methoxy-d3)pyrimidin-2-yl)-3-(((1R,3S)-3-((6-oxo-5-(trifluoromethyl)-1,6-dihydropyridazin-4-yl)amino)cyclohexyl)methyl)quinazolin-4(3H)-one], for which the EC50 was 5.63 nM.

In the case of `CS(=O)(=O)c1ccc(-c2cc3ccn(C[C@@H]4CCC[C@H](Nc5cn[nH]c(=O)c5C(F)(F)F)C4)c(=O)c3cc2F)nc1` [Example 11, 7-fluoro-6-(5-(methylsulfonyl)pyridin-2-yl)-2-(((1R,3S)-3-((6-oxo-5-(trifluoromethyl)-1,6-dihydropyridazin-4-yl)amino)cyclohexyl)methyl)isoquinolin-1(2H)-one], the EC50 is 13.6 nM.

As for `CC(F)(F)c1cnc(-c2cc3ccn(C[C@@H]4CCC[C@H](Oc5cn[nH]c(=O)c5C(F)(F)F)C4)c(=O)c3c(F)c2F)nc1` [Example 56, 6-(5-(1,1-difluoroethyl)pyrimidin-2-yl)-7,8-difluoro-2-(((1R,3S)-3-((6-oxo-5-(trifluoromethyl)-1,6-dihydropyridazin-4-yl)oxy)cyclohexyl)methyl)isoquinolin-1(2H)-one], the 50% effective concentration (EC50) came to 0.915 nM.

Turning to `Cc1nc(-c2cc3ccn(C[C@@H]4CCC[C@H](Nc5cn[nH]c(=O)c5C(F)(F)F)C4)c(=O)c3cc2F)ncc1Cl` [Example 7, 6-(5-chloro-4-methylpyrimidin-2-yl)-7-fluoro-2-(((1R,3S)-3-((6-oxo-5-(trifluoromethyl)-1,6-dihydropyridazin-4-yl)amino)cyclohexyl)methyl)isoquinolin-1(2H)-one], the EC50 was 6.03 nM.

Turning to `O=c1[nH]ncc(N[C@H]2CCC[C@@H](Cn3cc(Cl)c4cc(-c5ncc(C(F)F)cn5)c(F)c(F)c4c3=O)C2)c1C(F)(F)F` [Example 61], the EC50 is 1.33 nM.

As to `CC(F)(F)c1cnc(-c2cc3c(F)cn(C[C@@H]4CCC[C@H](Nc5cn[nH]c(=O)c5C(F)(F)F)C4)c(=O)c3c(F)c2F)nc1` [Example 43], the 50% effective concentration (EC50) worked out at 2.6 nM.

Consider `O=c1[nH]ncc(N[C@H]2CCC[C@@H](Cn3cc(F)c4cc(-c5nc6ccccn6n5)c(F)cc4c3=O)C2)c1C(F)(F)F` [Example 32, 6-([1,2,4]triazolo[1,5-a]pyridin-2-yl)-4,7-difluoro-2-(((1R,3S)-3-((6-oxo-5-(trifluoromethyl)-1,6-dihydropyridazin-4-yl)amino)cyclohexyl)methyl)isoquinolin-1(2H)-one], for which the EC50 was 1.53 nM.

For the molecule `O=c1[nH]ncc(N[C@H]2C[C@@H](O)C[C@@H](Cn3ccc4cc(-c5ncc(C(F)(F)F)cn5)c(F)cc4c3=O)C2)c1C(F)(F)F` [Example 62, 7-fluoro-2-[[(1S,3S,5R)-3-hydroxy-5-[[6-oxo-5-(trifluoromethyl)-1H-pyridazin-4-yl]amino]cyclohexyl]methyl]-6-[5-(trifluoromethyl)pyrimidin-2-yl]isoquinolin-1-one], the concentration for a half-maximal effect (EC50) worked out at 90 nM.

Consider `[2H]C([2H])([2H])Oc1cnc(-c2cc3c(F)cn(C[C@@H]4CCC[C@H](Nc5cn[nH]c(=O)c5C(F)(F)F)C4)c(=O)c3c(F)c2F)nc1` [Example 46, 4,7,8-trifluoro-2-[[(1R,3S)-3-[[6-oxo-5-(trifluoromethyl)-1H-pyridazin-4-yl]amino]cyclohexyl]methyl]-6-[5-(trideuteriomethoxy)pyrimidin-2-yl]isoquinolin-1-one], for which the EC50 is 1.19 nM.

Regarding `O=c1[nH]ncc(N[C@H]2CCC[C@@H](Cn3ccc4cc(-c5nc6n(n5)COCCO6)c(F)cc4c3=O)C2)c1C(F)(F)F` [Example 8, 6-(7,8-dihydro-5H-[1,2,4]triazolo[5,1-b][1,5,3]dioxazepin-2-yl)-7-fluoro-2-(((1R,3S)-3-((6-oxo-5-(trifluoromethyl)-1,6-dihydropyridazin-4-yl)amino)cyclohexyl)methyl)isoquinolin-1(2H)-one], the EC50 came out at 5.86 nM.

For the molecule `O=c1[nH]ncc(O[C@H]2CCC[C@@H](Cn3cc(F)c4cc(-c5ncc(C(F)F)cn5)c(F)c(F)c4c3=O)C2)c1C(F)(F)F` [Example 52, 6-(5-(difluoromethyl)pyrimidin-2-yl)-4,7,8-trifluoro-2-(((1R,3S)-3-((6-oxo-5-(trifluoromethyl)-1,6-dihydropyridazin-4-yl)oxy)cyclohexyl)methyl)isoquinolin-1(2H)-one], the EC50 turned out to be 1.22 nM.

On to `CC(O)(c1cnc(-c2cc3ccn(C[C@@H]4CCC[C@H](Nc5cn[nH]c(=O)c5C(F)(F)F)C4)c(=O)c3c(F)c2F)nc1)C(F)F` (stereo partly drawn) [Example 28, 6-(5-(1,1-difluoro-2-hydroxypropan-2-yl)pyrimidin-2-yl)-7,8-difluoro-2-(((1R,3S)-3-((6-oxo-5-(trifluoromethyl)-1,6-dihydropyridazin-4-yl)amino)cyclohexyl)methyl)isoquinolin-1(2H)-one], for which the EC50 was 5.84 nM.

`O=c1[nH]ncc(N[C@H]2C[C@@H](Cn3ccc4cc(-c5ncc(C(F)(F)F)cn5)c(F)cc4c3=O)CC(F)(F)C2)c1C(F)(F)F` (single isomer, unassigned) [Example 67]: the EC50 was 100 nM.

In the case of `CC(O)c1cnc(-c2cc3ccn(C[C@@H]4CCC[C@H](Nc5cn[nH]c(=O)c5C(F)(F)F)C4)c(=O)c3cc2F)nc1` (stereo partly drawn) [Example 10, 7-fluoro-6-(5-(1-hydroxyethyl)pyrimidin-2-yl)-2-(((1R,3S)-3-((6-oxo-5-(trifluoromethyl)-1,6-dihydropyridazin-4-yl)amino)cyclohexyl)methyl)isoquinolin-1(2H)-one], the EC50 turned out to be 6.86 nM.

On to `COc1cnc(-c2cc3c(Cl)cn(C[C@@H]4CCC[C@H](Nc5cn[nH]c(=O)c5C(F)(F)F)C4)c(=O)c3cc2F)nc1` [Example 58, 4-chloro-7-fluoro-6-(5-methoxypyrimidin-2-yl)-2-[[(1R,3S)-3-[[6-oxo-5-(trifluoromethyl)-1H-pyridazin-4-yl]amino]cyclohexyl]methyl]isoquinolin-1-one], for which the EC50 worked out at 5.91 nM.

For the molecule `O=c1[nH]ncc(N[C@H]2CCC[C@@H](Cn3cnc4cc(-c5ncc(OC(F)F)cn5)c(F)cc4c3=O)C2)c1C(F)(F)F` [Example 25, 7-(5-(difluoromethoxy)pyrimidin-2-yl)-6-fluoro-3-(((1R,3S)-3-((6-oxo-5-(trifluoromethyl)-1,6-dihydropyridazin-4-yl)amino)cyclohexyl)methyl)quinazolin-4(3H)-one], the EC50 is 3.78 nM.
